Assay results as given in BindingDB's records for doi:10.1021/acs.jmedchem.1c01951 (University of South Carolina, 2022).
pKd: −log10 of the molar value.

Molecular target: T1, Myosin-IIIb (Homo sapiens, UniProt Q8WXR4)
T1 sequence (Q8WXR4 whole entry): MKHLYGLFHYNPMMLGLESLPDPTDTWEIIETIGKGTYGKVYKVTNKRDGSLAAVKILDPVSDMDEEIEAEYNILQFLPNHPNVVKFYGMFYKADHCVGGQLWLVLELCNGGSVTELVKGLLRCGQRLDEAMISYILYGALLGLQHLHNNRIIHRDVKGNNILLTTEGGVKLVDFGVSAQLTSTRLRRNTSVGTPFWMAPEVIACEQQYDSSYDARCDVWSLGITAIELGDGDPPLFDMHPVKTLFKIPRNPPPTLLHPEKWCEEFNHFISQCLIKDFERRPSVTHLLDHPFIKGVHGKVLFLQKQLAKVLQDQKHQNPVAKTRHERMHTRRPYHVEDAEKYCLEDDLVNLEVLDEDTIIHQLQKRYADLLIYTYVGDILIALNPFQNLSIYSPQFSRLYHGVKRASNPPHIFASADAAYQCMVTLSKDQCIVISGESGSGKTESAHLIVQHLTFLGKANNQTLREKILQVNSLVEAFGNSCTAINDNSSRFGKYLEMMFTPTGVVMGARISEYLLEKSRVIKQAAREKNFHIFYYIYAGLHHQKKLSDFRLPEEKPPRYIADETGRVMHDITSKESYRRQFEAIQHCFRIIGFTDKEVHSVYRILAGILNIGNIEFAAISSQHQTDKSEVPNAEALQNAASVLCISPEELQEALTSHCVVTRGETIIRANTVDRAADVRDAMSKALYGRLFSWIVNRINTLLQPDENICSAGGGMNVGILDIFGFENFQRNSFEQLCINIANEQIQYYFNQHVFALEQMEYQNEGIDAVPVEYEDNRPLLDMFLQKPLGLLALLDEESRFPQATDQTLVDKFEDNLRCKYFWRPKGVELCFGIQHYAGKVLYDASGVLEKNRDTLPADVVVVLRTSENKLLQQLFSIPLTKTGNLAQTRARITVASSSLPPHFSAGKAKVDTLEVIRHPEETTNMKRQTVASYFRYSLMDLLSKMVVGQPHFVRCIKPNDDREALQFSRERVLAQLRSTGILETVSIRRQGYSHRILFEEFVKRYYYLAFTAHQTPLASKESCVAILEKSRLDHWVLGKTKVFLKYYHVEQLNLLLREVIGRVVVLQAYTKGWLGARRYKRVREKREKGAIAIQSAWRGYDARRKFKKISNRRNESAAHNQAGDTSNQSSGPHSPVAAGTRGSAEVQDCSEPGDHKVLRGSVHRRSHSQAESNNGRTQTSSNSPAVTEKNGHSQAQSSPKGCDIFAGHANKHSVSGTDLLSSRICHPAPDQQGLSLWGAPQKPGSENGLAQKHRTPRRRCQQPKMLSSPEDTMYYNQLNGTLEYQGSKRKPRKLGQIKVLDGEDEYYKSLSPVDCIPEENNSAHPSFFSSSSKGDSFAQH
Assay: Binding affinity to human MYO3B assessed as dissociation constant by KdELECT Discover assay

## CN1CCN(C(=O)c2ccc3cc(CCNc4ccnc5ccc(C#N)cc45)ccc3c2)CC1
  pKd: < 4.52
